Measured values: patent US4401604A, “Process for preparing thiosulfenamide derivatives of N-phosphonomethylglycine triesters” (Monsanto Company, priority 1981, dated 1983)

What was measured:
Type in all cases: in vivo
Soybean = experiment: Post-emergence herbicidal activity, greenhouse; settings: Table II, 4 WAT
Excerpt: (§1) A good grade of top soil is placed in aluminum pans having holes in the bottom and compacted to a depth of 0.95 to 1.27 cm. from the top of the pan. A predetermined number of seeds of each of several dicotyledonous and monocotyledonous annual plant species and/or vegetative propagules for the perennial plant species are placed on the soil and pressed into the soil surface. The seeds and/or vegetative propagules are covered with soil and leveled. The pans are then placed on a sand bench in the greenhouse and watered from below as needed. After the plants reach the desired age (two to three weeks), each pan except for the control pans is removed individually to a spraying chamber and sprayed by means of an atomizer operating at a positive air pressure of approximately 1.46 kg/cm^2 absolute. The atomizer contains 6 ml. of a solution or suspension of the chemical. In that 6 ml., is an amount of a cyclohexanone emulsifying agent mixture to give a spray solution or suspension which contains about 0.4% by weight of the emulsifier. The spray solution or suspension contains a sufficient amount of the candidate chemical in order to give application rates corresponding to those set forth in the tables. The spray solution is prepared by taking an aliquot of a 1.0% by weight stock solution or suspension of the candidate chemical in an organic solvent such as acetone or tetrahydrofuran or in water. The emulsifying agent employed is a mixture comprising 35 weight percent butylamine dodecylbenzene sulfonate and 65 weight percent of a tall oil ethylene oxide condensate having about 11 moles of ethylene oxide per mole of tall oil. The pans are returned to the greenhouse and watered as before and the injury to the plants as compared to the control is observed at approximately two and four weeks as indicated in the tables under WAT and the results recorded. In some instances, the two-week observations are omitted.
(§2) The post-emergence herbicidal activity index used in Table I is as follows:
(§3) The plant species utilized in these tests are identified by letter in accordance with the following legend: […]

Canada Thistle = experiment: Post-emergence herbicidal activity, greenhouse; settings: Table I, 4 WAT
Excerpt: as §1, §2, §3

Sorghum = experiment: Post-emergence herbicidal activity, greenhouse; settings: Table II, 4 WAT
Excerpt: as §1, §2, §3

Crabgrass = experiment: Post-emergence herbicidal activity, greenhouse; settings: Table II, 4 WAT
Excerpt: as §1, §2, §3

Cocklebur [1] = experiment: Post-emergence herbicidal activity, greenhouse; settings: 4 WAT
Excerpt: as §1, §2, §3

Yellow Nutsedge [2] = experiment: Post-emergence herbicidal activity, greenhouse; settings: Table I, 4 WAT
Excerpt: as §1, §2, §3

Sugar Beet = experiment: Post-emergence herbicidal activity, greenhouse; settings: Table II, 4 WAT
Excerpt: as §1, §2, §3

Smartweed = experiment: Post-emergence herbicidal activity, greenhouse; settings: 4 WAT
Excerpt: as §1, §2, §3

Lambsquarters [3] = experiment: Post-emergence herbicidal activity, greenhouse; settings: 4 WAT
Excerpt: as §1, §2, §3

Barnyardgrass = experiment: Pre-emergent herbicidal activity; settings: Table III; 11.2 kg/h; 2 WAT
Excerpt: (§4) A good grade of top soil is placed in aluminum pans and compacted to a depth of 0.95 to 1.27 cm. from the top of each pan. A predetermined number of seeds or vegetative propagules of each of several plant species are placed on top of the soil in each pan and then pressed down. Herbicidal compositions prepared as in the previous example are applied by admixture with or incorporation in the top layer of soil.
(§5) In this method, the soil required to cover the seeds and propagules is weighed and admixed with a herbicidal composition containing a known amount of the active ingredient (compound of this invention). The pans are then filled with the admixture and leveled. Watering is carried out by permitting the soil in the pans to absorb moisture through apertures in the pan bottoms. The seed and propagule containing pans are placed on a wet sand bench and maintained for approximately two weeks under ordinary conditions of sunlight and watering. At the end of this period, the number of emerged plants of each species is noted and compared to an untreated control.
(§6) The pre-emergent herbicidal activity index used below is based upon average percent control of each species as follows:
(§7) Plant species in the table are identified by the same code letters used in the previous example.

Quackgrass = experiment: Pre-emergent herbicidal activity; settings: Table III; 11.2 kg/h; 2 WAT
Excerpt: as §4, §5, §6, §7

Johnsongrass = experiment: Pre-emergent herbicidal activity; settings: Table III; 11.2 kg/h; 2 WAT
Excerpt: as §4, §5, §6, §7

Downy Brome = experiment: Pre-emergent herbicidal activity; settings: Table III; 11.2 kg/h; 2 WAT
Excerpt: as §4, §5, §6, §7

Velvetleaf = experiment: Pre-emergent herbicidal activity; settings: Table III; 11.2 kg/h; 2 WAT
Excerpt: as §4, §5, §6, §7

Morningglory = experiment: Pre-emergent herbicidal activity; settings: Table III; 11.2 kg/h; 2 WAT
Excerpt: as §4, §5, §6, §7

Cocklebur [4] = experiment: Pre-emergent herbicidal activity; settings: Table III; 11.2 kg/h; 2 WAT
Excerpt: as §4, §5, §6, §7

Yellow Nutsedge [5] = experiment: Pre-emergent herbicidal activity; settings: Table III; 11.2 kg/h; 2 WAT
Excerpt: as §4, §5, §6, §7

Lambsquarters [6] = experiment: Pre-emergent herbicidal activity; settings: Table III; 11.2 kg/h; 2 WAT
Excerpt: as §4, §5, §6, §7

Question: What does the source list for `CCOC(=O)CN(CP(=O)(Oc1ccc(OC)cc1)Oc1ccc(OC)cc1)SSC` [VI, Glycine, N-[[bis(4-methoxyphenoxy)phosphinyl]methyl]-N-(methyldithio)-, ethyl ester]?
Answer: post-emergence herbicidal activity index (Soybean; 0.28 kg/h): 0 (0- 24% control); post-emergence herbicidal activity index (Soybean; 1.12 kg/h): 1 (25-49% control); post-emergence herbicidal activity index (Soybean; 5.6 kg/h): 3 (75-99% control); post-emergence herbicidal activity index (Canada Thistle; 5.6 kg/h): 1 (25-49% control); post-emergence herbicidal activity index (Canada Thistle; 11.2 kg/h): 2 (50-74% control); post-emergence herbicidal activity index (Sorghum; 0.28 kg/h): 0 (0- 24% control); post-emergence herbicidal activity index (Sorghum; 1.12 kg/h): 2 (50-74% control); post-emergence herbicidal activity index (Sorghum; 5.6 kg/h): 3 (75-99% control); post-emergence herbicidal activity index (Crabgrass; 0.28 kg/h): 0 (0- 24% control); post-emergence herbicidal activity index (Crabgrass; 1.12 kg/h): 4 (100% control); post-emergence herbicidal activity index (Crabgrass; 5.6 kg/h): 4 (100% control); post-emergence herbicidal activity index (Cocklebur [1]; Table I, 5.6 kg/h): 2 (50-74% control); post-emergence herbicidal activity index (Cocklebur [1]; Table I, 11.2 kg/h): 3 (75-99% control); post-emergence herbicidal activity index (Cocklebur [1]; Table II, 0.28 kg/h): 0 (0- 24% control); post-emergence herbicidal activity index (Cocklebur [1]; Table II, 1.12 kg/h): 3 (75-99% control); post-emergence herbicidal activity index (Cocklebur [1]; Table II, 5.6 kg/h): 4 (100% control); post-emergence herbicidal activity index (Yellow Nutsedge [2]; 5.6 kg/h): 1 (25-49% control); post-emergence herbicidal activity index (Yellow Nutsedge [2]; 11.2 kg/h): 1 (25-49% control); post-emergence herbicidal activity index (Sugar Beet; 0.28 kg/h): 0 (0- 24% control); post-emergence herbicidal activity index (Sugar Beet; 1.12 kg/h): 1 (25-49% control); post-emergence herbicidal activity index (Sugar Beet; 5.6 kg/h): 4 (100% control); post-emergence herbicidal activity index (Smartweed; Table I, 5.6 kg/h): 2 (50-74% control); post-emergence herbicidal activity index (Smartweed; Table I, 11.2 kg/h): 2 (50-74% control); post-emergence herbicidal activity index (Smartweed; Table II, 0.28 kg/h): 0 (0- 24% control); post-emergence herbicidal activity index (Smartweed; Table II, 5.6 kg/h): 4 (100% control); post-emergence herbicidal activity index (Lambsquarters [3]; Table I, 5.6 kg/h): 3 (75-99% control); post-emergence herbicidal activity index (Lambsquarters [3]; Table I, 11.2 kg/h): 3 (75-99% control); post-emergence herbicidal activity index (Lambsquarters [3]; Table II, 0.28 kg/h): 0 (0- 24% control); post-emergence herbicidal activity index (Lambsquarters [3]; Table II, 1.12 kg/h): 2 (50-74% control); post-emergence herbicidal activity index (Lambsquarters [3]; Table II, 5.6 kg/h): 4 (100% control); pre-emergent herbicidal activity index (Barnyardgrass): 0 (0-24% control); pre-emergent herbicidal activity index (Quackgrass): 0 (0-24% control); pre-emergent herbicidal activity index (Johnsongrass): 0 (0-24% control); pre-emergent herbicidal activity index (Downy Brome): 0 (0-24% control); pre-emergent herbicidal activity index (Velvetleaf): 0 (0-24% control); pre-emergent herbicidal activity index (Morningglory): 0 (0-24% control); pre-emergent herbicidal activity index (Cocklebur [4]): 0 (0-24% control); pre-emergent herbicidal activity index (Yellow Nutsedge [5]): 0 (0-24% control); pre-emergent herbicidal activity index (Lambsquarters [6]): 0 (0-24% control)
